We go through one compound from paper PMC10424186 (Journal of Medicinal Chemistry, 2023).

What all share (type): biochemical
One experiment deals with T1, AspH (Homo sapiens, UniProt Q12797).
T1 construct: N-terminally His6-tagged AspH315–758; made in house; host or cells: Escherichia coli
T1 sequence (Q12797 315-758): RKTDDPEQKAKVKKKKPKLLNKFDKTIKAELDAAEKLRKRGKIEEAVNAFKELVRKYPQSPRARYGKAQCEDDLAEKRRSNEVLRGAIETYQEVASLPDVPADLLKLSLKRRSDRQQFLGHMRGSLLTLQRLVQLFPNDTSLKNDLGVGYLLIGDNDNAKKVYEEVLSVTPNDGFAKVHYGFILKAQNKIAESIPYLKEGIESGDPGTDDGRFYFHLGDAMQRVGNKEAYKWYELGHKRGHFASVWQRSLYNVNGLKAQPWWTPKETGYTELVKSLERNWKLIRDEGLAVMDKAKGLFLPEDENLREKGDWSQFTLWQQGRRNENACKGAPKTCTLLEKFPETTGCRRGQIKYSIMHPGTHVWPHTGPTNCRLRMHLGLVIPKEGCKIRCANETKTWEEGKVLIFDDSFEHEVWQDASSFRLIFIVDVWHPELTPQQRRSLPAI
Briefly: SPE-MS AspH inhibition assay (hFX-CP101–119 hydroxylation). The following applies: Table 2; His6-AspH315–758 0.05 μM, 1.0 μM hFX-CP101–119; n = 2, mean ± SD. As to the method: (§1) H3_1-15K9me3, histone 3 (H3), residues 1–15 with K9 of H3-bearing three methyl groups at the N^ε-position, K4 of H3 substituted by an alanine residue, and K14 of H3 by an isoleucine residue,[73] for KDM4E; and RPL27A, residues 31–49, for RIOX2 (Mina53).[44]
(§2) Cosubstrate/cofactor stock solutions [L-ascorbic acid/LAA: 50 mM in MQ-grade water; 2-oxoglutarate/2OG: 10 mM in MQ-grade water; ammonium iron(II) sulfate hexahydrate/FAS/(NH4)2Fe(SO4)2·6H2O: 400 mM in 20 mM HCl diluted to 1 mM in MQ-grade water] were freshly prepared from commercial solids (Sigma-Aldrich) on the day the assays were performed. The JMJD5,[42] PHD2,[70] FIH,[70] KDM4E,[72],[73] RIOX2,[44] and AspH[45] […] For JMJD5, PHD2, FIH, RIOX2, and AspH, substrate hydroxylation was monitored (+16 Da mass shift), while for the KDM4E substrate, demethylation was monitored (−14 Da mass shift) by SPE-MS.

Another experiment concerns the target T2, PHD2 (Homo sapiens, UniProt Q9GZT9).
T2 construct: His6-PHD2_181–426; made in house; host or cells: Escherichia coli
Briefly: SPE-MS PHD2 inhibition assay (HIF-1α CODD hydroxylation). The conditions noted are these: Table 2; PHD2 181–426 […], 5.0 μM HIF-1α CODD; n = 2, mean ± SD. As to the method: as §1, §2

In a further experiment the target is T3, FIH (Homo sapiens, UniProt Q9NWT6).
T3 construct: made in house; host or cells: Escherichia coli
T3 sequence (Q9NWT6 whole entry): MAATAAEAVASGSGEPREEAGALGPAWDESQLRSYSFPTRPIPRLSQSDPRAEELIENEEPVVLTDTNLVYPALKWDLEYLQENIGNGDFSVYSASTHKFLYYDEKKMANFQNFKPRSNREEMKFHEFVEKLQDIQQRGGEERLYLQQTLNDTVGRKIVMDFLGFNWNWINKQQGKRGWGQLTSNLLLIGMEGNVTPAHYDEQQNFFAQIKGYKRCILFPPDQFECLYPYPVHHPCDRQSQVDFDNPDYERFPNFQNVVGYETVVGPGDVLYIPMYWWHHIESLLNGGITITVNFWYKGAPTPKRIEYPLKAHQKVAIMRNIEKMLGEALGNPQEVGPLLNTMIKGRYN
Briefly: SPE-MS FIH inhibition assay (HIF-1α CAD hydroxylation). The conditions noted are these: Table 2; His6-FIH 0.15 μM, 5.0 μM HIF-1α CAD; n = 2, mean ± SD.

The target of the next experiment is T4, RIOX2 (Homo sapiens, UniProt Q8IUF8).
T4 construct: N-terminally His6-tagged RIOX2_26–465; made in house; host or cells: Escherichia coli
T4 sequence (Q8IUF8 26-465): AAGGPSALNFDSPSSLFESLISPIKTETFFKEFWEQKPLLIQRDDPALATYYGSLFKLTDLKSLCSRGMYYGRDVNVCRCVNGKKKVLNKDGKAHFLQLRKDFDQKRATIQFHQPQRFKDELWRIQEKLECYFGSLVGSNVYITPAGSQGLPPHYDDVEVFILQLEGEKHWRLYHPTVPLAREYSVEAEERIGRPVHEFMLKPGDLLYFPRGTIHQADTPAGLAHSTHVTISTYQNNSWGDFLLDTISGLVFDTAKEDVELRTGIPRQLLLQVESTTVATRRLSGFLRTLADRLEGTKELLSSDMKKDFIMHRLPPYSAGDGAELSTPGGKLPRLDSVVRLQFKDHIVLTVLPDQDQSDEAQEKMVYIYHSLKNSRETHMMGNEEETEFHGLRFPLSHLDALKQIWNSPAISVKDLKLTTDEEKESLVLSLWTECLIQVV
Briefly: SPE-MS RIOX2 inhibition assay (RPL27A31–49 hydroxylation). The conditions noted are these: Table 2; His6-RIOX2 26–465 […], 5.0 μM RPL27A31–49; n = 2, mean ± SD.

The target of the next experiment is T5, KDM4E (Homo sapiens, UniProt B2RXH2).
T5 construct: made in house; host or cells: Escherichia coli
T5 sequence (B2RXH2 1-506): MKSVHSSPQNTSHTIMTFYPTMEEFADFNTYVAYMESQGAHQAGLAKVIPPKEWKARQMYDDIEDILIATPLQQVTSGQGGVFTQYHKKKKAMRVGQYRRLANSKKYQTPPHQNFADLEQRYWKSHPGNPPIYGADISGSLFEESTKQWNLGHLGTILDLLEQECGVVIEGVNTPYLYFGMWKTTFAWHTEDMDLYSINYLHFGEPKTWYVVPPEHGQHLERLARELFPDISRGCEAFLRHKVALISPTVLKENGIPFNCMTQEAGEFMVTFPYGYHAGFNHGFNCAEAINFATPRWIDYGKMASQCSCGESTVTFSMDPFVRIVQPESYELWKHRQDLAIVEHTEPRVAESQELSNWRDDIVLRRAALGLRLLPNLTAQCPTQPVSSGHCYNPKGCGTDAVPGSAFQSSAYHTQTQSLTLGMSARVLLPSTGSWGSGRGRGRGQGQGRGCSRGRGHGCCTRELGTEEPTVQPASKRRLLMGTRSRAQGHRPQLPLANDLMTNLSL
Briefly: SPE-MS KDM4E inhibition assay (demethylation of H3 1–15 K9me3). The following applies: Table 2, 10.0 μM H3 1–15 K9me3, n = 2, mean ± SD. As to the method: as §1, §2

T2 sequence (Q9GZT9 181-426): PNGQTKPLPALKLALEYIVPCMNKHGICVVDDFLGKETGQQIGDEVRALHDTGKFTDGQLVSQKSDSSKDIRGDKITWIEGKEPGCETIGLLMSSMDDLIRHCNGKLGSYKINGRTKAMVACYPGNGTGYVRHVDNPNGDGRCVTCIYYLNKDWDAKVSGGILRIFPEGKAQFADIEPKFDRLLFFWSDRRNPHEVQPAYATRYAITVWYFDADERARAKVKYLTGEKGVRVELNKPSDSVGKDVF
Procedure for FIH: HIF-α CAD, residues 788–822, for FIH;[70]
Cosubstrate/cofactor stock solutions [L-ascorbic acid/LAA: 50 mM in MQ-grade water; 2-oxoglutarate/2OG: 10 mM in MQ-grade water; ammonium iron(II) sulfate hexahydrate/FAS/(NH4)2Fe(SO4)2·6H2O: 400 mM in 20 mM HCl diluted to 1 mM in MQ-grade water] were freshly prepared from commercial solids (Sigma-Aldrich) on the day the assays were performed. […] FIH,[70] […] SPE-MS inhibition assays were performed as described in the cited literature, using isolated recombinant human enzymes (His6-thioredoxin-JMJD5,[42] His6-PHD2_181–426,[70] His6-FIH,[70] His6-KDM4E,[72],[73] His6-RIOX2_26–465,[87],[88] and His6-AspH315–758[48],[80]) and synthetic peptide substrates (RPS6_128–148 for JMJD5;[42] HIF-α CODD558–574 for PHD2;[70] HIF-α CAD788–822 for FIH;[70] H3_1–15K9me3 for KDM4E;[73] RPL27A31–49 for RIOX2;[44],[71] and hFX-CP101–119 for AspH;[45],[48] see above). For JMJD5, PHD2, FIH, RIOX2, and AspH, substrate hydroxylation was monitored (+16 Da mass shift), while for the KDM4E substrate, demethylation was monitored (−14 Da mass shift) by SPE-MS.
Procedure for RIOX2: Cosubstrate/cofactor stock solutions [L-ascorbic acid/LAA: 50 mM in MQ-grade water; 2-oxoglutarate/2OG: 10 mM in MQ-grade water; ammonium iron(II) sulfate hexahydrate/FAS/(NH4)2Fe(SO4)2·6H2O: 400 mM in 20 mM HCl diluted to 1 mM in MQ-grade water] were freshly prepared from commercial solids (Sigma-Aldrich) on the day the assays were performed. […] For JMJD5, PHD2, FIH, RIOX2, and AspH, substrate hydroxylation was monitored (+16 Da mass shift), while for the KDM4E substrate, demethylation was monitored (−14 Da mass shift) by SPE-MS.

The IC50 is the concentration at which inhibition is half-maximal. Low values mean greater potency in that assay, high ones weaker potency in that assay. Turning to `O=C(O)c1cc(C(=O)O)c(NCc2ccccc2C2CC2)cn1` [Compound 20j, 5-((2-cyclopropylbenzyl)amino)pyridine-2,4-dicarboxylic acid], the IC50 on AspH is 8.9 ± 5 µM; against PHD2, greater than 50 µM; on FIH, greater than 50 µM; against RIOX2, greater than 50 µM; against KDM4E, greater than 50 µM.
